Test results from patent publication US6608070B1, “2,3-substituted indole compounds as anti-inflammatory and analgesic agents” (priority 1999, dated 2003).

Row | SMILES | melting point
1 | O=C(O)Cc1c(C(=O)c2cc3ccccc3cn2)[nH]c2ccc(Cl)cc12 [Example 221, [5-Chloro-2-(isoquinoline-3-carbonyl)-1H-indol-3-yl]acetic Acid] | 239 to 240 °C
2 | O=C(O)Cc1c(C(=O)c2cc(CO)ccn2)[nH]c2ccc(Cl)cc12 [Example 98, [5-Chloro-2-[4-(hydroxymethyl)pyridine-2-carbonyl]-1H-indol-3-yl]acetic Acid] | 218 to 219 °C
